Experiments:
Adenosine receptor A3 = target: T1, Adenosine receptor A3 (Homo sapiens, UniProt P0DMS8)
T1 sequence (P0DMS8 whole entry): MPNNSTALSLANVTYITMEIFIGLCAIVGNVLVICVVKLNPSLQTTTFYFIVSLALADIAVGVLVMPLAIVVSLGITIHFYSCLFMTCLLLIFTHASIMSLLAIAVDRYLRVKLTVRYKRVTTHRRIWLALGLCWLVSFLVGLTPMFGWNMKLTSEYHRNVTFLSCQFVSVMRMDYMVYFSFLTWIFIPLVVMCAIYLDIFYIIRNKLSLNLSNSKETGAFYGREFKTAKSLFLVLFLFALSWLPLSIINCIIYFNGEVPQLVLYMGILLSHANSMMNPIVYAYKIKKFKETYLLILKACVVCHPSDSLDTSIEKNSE

[1] = target: Beta-1 adrenergic receptor (Homo sapiens, UniProt P08588); format: functional
Chain of Beta-1 adrenergic receptor (P08588 whole entry): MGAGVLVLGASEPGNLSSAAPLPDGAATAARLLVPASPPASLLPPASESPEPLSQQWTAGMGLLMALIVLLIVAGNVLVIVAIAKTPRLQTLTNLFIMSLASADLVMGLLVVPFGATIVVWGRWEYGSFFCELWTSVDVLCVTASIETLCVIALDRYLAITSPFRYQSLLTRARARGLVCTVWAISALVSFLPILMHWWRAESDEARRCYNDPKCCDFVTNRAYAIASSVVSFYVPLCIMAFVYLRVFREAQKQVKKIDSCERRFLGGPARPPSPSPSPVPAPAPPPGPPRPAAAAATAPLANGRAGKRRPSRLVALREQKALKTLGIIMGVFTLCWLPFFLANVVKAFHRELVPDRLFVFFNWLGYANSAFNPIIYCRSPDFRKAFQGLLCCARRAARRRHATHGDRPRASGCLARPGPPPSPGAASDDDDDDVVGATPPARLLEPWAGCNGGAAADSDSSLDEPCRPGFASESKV

Cannabinoid receptor 1 = Cannabinoid receptor 1 (Homo sapiens, UniProt P21554)
Chain of Cannabinoid receptor 1 (P21554 whole entry): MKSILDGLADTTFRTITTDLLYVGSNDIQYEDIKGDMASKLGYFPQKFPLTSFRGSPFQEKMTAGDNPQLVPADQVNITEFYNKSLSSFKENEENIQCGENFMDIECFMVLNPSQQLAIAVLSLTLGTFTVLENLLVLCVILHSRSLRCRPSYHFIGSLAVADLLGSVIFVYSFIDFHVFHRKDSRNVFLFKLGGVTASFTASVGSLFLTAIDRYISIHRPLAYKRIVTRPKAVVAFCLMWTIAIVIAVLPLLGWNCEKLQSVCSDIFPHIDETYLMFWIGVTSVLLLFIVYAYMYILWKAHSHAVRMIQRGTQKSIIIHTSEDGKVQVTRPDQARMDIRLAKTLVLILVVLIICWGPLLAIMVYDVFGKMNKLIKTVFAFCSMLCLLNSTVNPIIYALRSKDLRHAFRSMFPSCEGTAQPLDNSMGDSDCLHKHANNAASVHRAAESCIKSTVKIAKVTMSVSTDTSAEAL

Estrogen receptor = target: T2, Estrogen receptor (Homo sapiens, UniProt P03372)
T2 sequence (P03372 whole entry): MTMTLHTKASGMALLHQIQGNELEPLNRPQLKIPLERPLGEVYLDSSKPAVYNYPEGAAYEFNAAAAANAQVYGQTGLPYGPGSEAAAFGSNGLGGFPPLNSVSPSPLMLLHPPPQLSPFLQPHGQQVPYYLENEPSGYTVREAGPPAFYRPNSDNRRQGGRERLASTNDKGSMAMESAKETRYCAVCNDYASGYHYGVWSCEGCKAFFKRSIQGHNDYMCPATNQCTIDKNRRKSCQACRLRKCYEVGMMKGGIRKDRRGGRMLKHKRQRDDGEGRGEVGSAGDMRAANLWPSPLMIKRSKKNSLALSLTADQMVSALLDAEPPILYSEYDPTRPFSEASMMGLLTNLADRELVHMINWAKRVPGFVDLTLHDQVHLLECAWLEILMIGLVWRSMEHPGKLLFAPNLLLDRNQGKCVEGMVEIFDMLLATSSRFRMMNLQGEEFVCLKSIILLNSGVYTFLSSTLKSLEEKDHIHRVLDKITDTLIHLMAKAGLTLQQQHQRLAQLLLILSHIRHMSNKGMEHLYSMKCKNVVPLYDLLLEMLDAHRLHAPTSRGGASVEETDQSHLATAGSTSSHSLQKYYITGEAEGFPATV

[2] = target: T3, 5-hydroxytryptamine receptor 1A (Homo sapiens, UniProt P08908); format: functional, cell-based
T3 sequence (P08908 whole entry): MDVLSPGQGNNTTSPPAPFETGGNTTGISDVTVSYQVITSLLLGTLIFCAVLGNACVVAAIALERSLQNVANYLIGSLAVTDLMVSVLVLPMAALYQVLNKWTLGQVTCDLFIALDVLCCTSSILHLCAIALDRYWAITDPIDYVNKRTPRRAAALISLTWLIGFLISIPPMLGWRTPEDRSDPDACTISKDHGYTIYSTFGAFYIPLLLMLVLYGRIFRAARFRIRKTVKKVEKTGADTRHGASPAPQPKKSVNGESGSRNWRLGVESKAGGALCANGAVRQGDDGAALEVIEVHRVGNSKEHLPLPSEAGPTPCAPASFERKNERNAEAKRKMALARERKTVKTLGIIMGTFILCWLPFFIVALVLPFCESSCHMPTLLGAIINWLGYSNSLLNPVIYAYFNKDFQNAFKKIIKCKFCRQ

Motilin receptor = Motilin receptor (Homo sapiens, UniProt O43193)
Chain of Motilin receptor (O43193 whole entry): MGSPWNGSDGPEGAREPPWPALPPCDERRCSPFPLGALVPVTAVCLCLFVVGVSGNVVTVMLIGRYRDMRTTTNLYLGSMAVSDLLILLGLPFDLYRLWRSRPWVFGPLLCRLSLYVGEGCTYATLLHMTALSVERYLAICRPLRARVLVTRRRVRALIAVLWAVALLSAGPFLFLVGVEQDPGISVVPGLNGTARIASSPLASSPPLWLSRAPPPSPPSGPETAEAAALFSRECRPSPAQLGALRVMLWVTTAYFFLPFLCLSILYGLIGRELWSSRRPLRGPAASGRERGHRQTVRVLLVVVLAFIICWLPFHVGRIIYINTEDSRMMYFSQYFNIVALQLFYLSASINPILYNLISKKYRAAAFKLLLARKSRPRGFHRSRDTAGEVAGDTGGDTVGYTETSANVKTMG

D(1A) dopamine receptor = D(1A) dopamine receptor (Homo sapiens, UniProt P21728)
Chain of D(1A) dopamine receptor (P21728 whole entry): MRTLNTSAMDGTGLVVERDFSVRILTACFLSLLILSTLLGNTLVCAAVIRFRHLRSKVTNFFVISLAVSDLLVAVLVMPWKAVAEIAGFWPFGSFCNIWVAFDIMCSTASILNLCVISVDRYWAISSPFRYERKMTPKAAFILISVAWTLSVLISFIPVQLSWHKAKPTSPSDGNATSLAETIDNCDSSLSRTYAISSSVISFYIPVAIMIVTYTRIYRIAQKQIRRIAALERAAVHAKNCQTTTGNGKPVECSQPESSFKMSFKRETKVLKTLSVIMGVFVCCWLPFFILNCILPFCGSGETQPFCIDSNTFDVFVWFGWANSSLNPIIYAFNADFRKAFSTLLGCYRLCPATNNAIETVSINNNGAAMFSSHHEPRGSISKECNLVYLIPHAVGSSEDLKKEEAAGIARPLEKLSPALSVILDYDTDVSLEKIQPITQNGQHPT

Progesterone receptor = target: T4, Progesterone receptor (Homo sapiens, UniProt P06401)
T4 sequence (P06401 whole entry): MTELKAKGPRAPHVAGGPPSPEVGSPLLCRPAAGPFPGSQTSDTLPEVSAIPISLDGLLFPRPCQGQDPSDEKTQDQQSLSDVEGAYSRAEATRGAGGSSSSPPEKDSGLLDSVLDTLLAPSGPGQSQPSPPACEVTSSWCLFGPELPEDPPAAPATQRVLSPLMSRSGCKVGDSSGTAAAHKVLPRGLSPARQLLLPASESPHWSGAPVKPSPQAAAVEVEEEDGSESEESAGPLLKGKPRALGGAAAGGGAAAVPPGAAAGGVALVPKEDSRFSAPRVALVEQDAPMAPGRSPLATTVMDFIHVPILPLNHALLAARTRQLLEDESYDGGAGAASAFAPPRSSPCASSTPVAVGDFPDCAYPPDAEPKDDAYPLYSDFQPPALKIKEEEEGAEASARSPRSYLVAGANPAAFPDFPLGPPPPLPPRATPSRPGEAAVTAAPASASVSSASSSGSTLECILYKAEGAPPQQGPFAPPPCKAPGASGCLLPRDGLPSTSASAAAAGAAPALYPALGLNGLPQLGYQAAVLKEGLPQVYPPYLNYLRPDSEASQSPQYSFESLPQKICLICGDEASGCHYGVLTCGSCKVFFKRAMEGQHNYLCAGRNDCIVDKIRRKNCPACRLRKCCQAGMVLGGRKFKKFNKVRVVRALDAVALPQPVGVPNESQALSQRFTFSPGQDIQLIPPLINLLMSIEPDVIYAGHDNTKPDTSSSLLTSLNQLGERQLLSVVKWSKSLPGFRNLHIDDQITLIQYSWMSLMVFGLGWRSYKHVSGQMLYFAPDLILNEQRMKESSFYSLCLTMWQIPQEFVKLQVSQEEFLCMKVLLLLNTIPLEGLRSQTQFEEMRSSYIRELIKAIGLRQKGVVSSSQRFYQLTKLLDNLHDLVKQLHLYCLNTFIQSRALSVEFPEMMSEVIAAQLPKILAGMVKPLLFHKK

[3] = target: T5, Alpha-1A adrenergic receptor (Homo sapiens, UniProt P35348); format: functional, cell-based
T5 sequence (P35348 whole entry): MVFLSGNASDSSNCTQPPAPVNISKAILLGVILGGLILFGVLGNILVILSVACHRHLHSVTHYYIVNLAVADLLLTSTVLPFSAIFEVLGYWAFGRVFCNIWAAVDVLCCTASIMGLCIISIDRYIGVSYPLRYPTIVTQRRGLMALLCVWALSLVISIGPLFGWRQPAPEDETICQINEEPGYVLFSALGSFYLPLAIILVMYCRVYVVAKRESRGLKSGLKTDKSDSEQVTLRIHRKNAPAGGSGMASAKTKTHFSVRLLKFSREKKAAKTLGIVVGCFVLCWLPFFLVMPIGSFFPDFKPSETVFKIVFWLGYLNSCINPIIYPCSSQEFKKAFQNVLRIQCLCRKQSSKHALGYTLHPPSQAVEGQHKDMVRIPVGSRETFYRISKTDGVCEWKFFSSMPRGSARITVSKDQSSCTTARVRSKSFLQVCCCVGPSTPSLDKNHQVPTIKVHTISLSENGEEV
Also: assay procedure not described here.

## CN(C)Cc1nnc2n1-c1ccc(Cl)cc1C(c1ccccc1)=NC2 [ADINAZOLAM]
Adenosine receptor A3
  AC50: > 10 µM
[1]
  AC50: > 10 µM
Cannabinoid receptor 1
  AC50: > 10 µM
Estrogen receptor
  AC50: > 10 µM
[2]
  AC50: > 10 µM
Motilin receptor
  AC50: > 10 µM

## O=C(/C=C/c1cccc(S(=O)(=O)Nc2ccccc2)c1)NO [BELINOSTAT]
Adenosine receptor A3
  AC50: > 30 µM
[1]
  AC50: > 10 µM
Cannabinoid receptor 1
  AC50: > 10 µM
D(1A) dopamine receptor
  AC50: > 30 µM
Estrogen receptor
  AC50: > 30 µM
Motilin receptor
  AC50: > 10 µM
Progesterone receptor
  AC50: > 30 µM

## CC(C)(Oc1ccc(CCNC(=O)c2ccc(Cl)cc2)cc1)C(=O)O [BEZAFIBRATE]
Adenosine receptor A3
  AC50: > 10 µM
[1]
  AC50: > 10 µM
Cannabinoid receptor 1
  AC50: > 10 µM
Estrogen receptor
  AC50: > 10 µM
[2]
  AC50: > 30 µM
Motilin receptor
  AC50: > 10 µM

## CC(O)(CS(=O)(=O)c1ccc(F)cc1)C(=O)Nc1ccc(C#N)c(C(F)(F)F)c1 (centres undefined) [BICALUTAMIDE]
Adenosine receptor A3
  AC50: > 30 µM
[3]
  AC50: > 10 µM
[1]
  AC50: > 30 µM
Cannabinoid receptor 1
  AC50: > 10 µM
D(1A) dopamine receptor
  AC50: > 30 µM
[2]
  AC50: > 10 µM
Motilin receptor
  AC50: > 30 µM
Progesterone receptor
  AC50: 0.46 µM

## O=C(O)COCCN1CCN(C(c2ccccc2)c2ccc(Cl)cc2)CC1 (centres undefined) [CETIRIZINE]
Adenosine receptor A3
  AC50: > 30 µM
[3]
  AC50: > 30 µM
[1]
  AC50: > 10 µM
Cannabinoid receptor 1
  AC50: > 10 µM
Estrogen receptor
  AC50: > 30 µM
[2]
  AC50: > 10 µM
Motilin receptor
  AC50: > 10 µM
Progesterone receptor
  AC50: > 30 µM

## CC(=O)O[C@]1(C(C)=O)CC[C@H]2[C@@H]3C=C(Cl)C4=CC(=O)[C@@H]5C[C@@H]5[C@]4(C)[C@H]3CC[C@@]21C [CYPROTERONE ACETATE]
Adenosine receptor A3
  AC50: > 30 µM
[3]
  AC50: > 30 µM
[1]
  AC50: > 10 µM
Cannabinoid receptor 1
  AC50: > 10 µM
D(1A) dopamine receptor
  AC50: > 30 µM
Motilin receptor
  AC50: > 10 µM

## C/C=C(/C(=C/C)c1ccc(O)cc1)c1ccc(O)cc1 [DIENESTROL]
Adenosine receptor A3
  AC50: 7.3 µM
[1]
  AC50: > 10 µM
Cannabinoid receptor 1
  AC50: > 10 µM
Estrogen receptor
  AC50: 0.0035 µM
[2]
  AC50: > 10 µM
Motilin receptor
  AC50: > 10 µM

## CN[C@]1(c2ccccc2Cl)CCCCC1=O [ESKETAMINE]
Adenosine receptor A3
  AC50: > 30 µM
[1]
  AC50: > 30 µM
Cannabinoid receptor 1
  AC50: > 30 µM
Estrogen receptor
  AC50: > 30 µM
Motilin receptor
  AC50: > 30 µM

## C[C@@H]1C[C@H]2[C@@H]3C[C@H](F)C4=CC(=O)C=C[C@]4(C)[C@@]3(F)[C@@H](O)C[C@]2(C)[C@@]1(OC(=O)c1ccco1)C(=O)SCF [FLUTICASONE FUROATE]
Adenosine receptor A3
  AC50: > 10 µM
[3]
  AC50: > 30 µM
[1]
  AC50: > 10 µM
Cannabinoid receptor 1
  AC50: 16.3 µM
D(1A) dopamine receptor
  AC50: > 30 µM
[2]
  AC50: > 10 µM
Motilin receptor
  AC50: > 10 µM

## COc1ccc([C@@H]2CC(=O)c3c(O)cc(O)cc3O2)cc1O [HESPERETIN]
Adenosine receptor A3
  AC50: > 10 µM
[1]
  AC50: > 10 µM
Cannabinoid receptor 1
  AC50: > 10 µM
Estrogen receptor
  AC50: > 10 µM
[2]
  AC50: > 10 µM
Motilin receptor
  AC50: > 10 µM

## CN(C)CCCN1c2ccccc2CCc2ccccc21 [IMIPRAMINE]
Adenosine receptor A3
  AC50: 30.8 µM
[1]
  AC50: > 10 µM
Cannabinoid receptor 1
  AC50: 0.174 µM
[2]
  AC50: > 10 µM
Motilin receptor
  AC50: > 10 µM

## CCC[C@@H]1C[C@@H](C(=O)N[C@@H]([C@H]2O[C@H](SC)[C@H](O)[C@@H](O)[C@H]2O)[C@@H](C)O)N(C)C1 [LINCOMYCIN]
Adenosine receptor A3
  AC50: > 10 µM
[1]
  AC50: > 10 µM
Cannabinoid receptor 1
  AC50: > 10 µM
Estrogen receptor
  AC50: > 10 µM
[2]
  AC50: > 10 µM
Motilin receptor
  AC50: > 10 µM

## C=C1c2cccc(O)c2C(=O)C2=C(O)[C@]3(O)C(=O)C(C(N)=O)=C(O)[C@@H](N(C)C)[C@@H]3[C@@H](O)[C@H]12 [METHACYCLINE]
Adenosine receptor A3
  AC50: > 30 µM
[1]
  AC50: > 10 µM
Cannabinoid receptor 1
  AC50: > 10 µM
Estrogen receptor
  AC50: > 30 µM
[2]
  AC50: > 10 µM
Motilin receptor
  AC50: > 30 µM

## CN(Cc1cnc2nc(N)nc(N)c2n1)c1ccc(C(=O)N[C@@H](CCC(=O)O)C(=O)O)cc1 [METHOTREXATE]
Adenosine receptor A3
  AC50: > 30 µM
[1]
  AC50: > 10 µM
Cannabinoid receptor 1
  AC50: > 10 µM
Estrogen receptor
  AC50: > 30 µM
[2]
  AC50: > 10 µM
Motilin receptor
  AC50: > 10 µM

## Cc1ccccc1N1C(=O)c2cc(S(N)(=O)=O)c(Cl)cc2NC1C (centres undefined) [METOLAZONE]
Adenosine receptor A3
  AC50: > 10 µM
[1]
  AC50: > 10 µM
Cannabinoid receptor 1
  AC50: > 10 µM
[2]
  AC50: > 10 µM
Motilin receptor
  AC50: > 10 µM

## O=C(O)c1cccnc1Nc1cccc(C(F)(F)F)c1 [NIFLUMIC ACID]
Adenosine receptor A3
  AC50: > 10 µM
[1]
  AC50: > 10 µM
Cannabinoid receptor 1
  AC50: > 10 µM
Estrogen receptor
  AC50: > 10 µM
[2]
  AC50: > 10 µM
Motilin receptor
  AC50: > 10 µM

## O=C1c2cccc3c2[C@H](CCC3)CN1[C@@H]1CN2CCC1CC2 [PALONOSETRON]
Adenosine receptor A3
  AC50: > 30 µM
[1]
  AC50: > 30 µM
Cannabinoid receptor 1
  AC50: > 30 µM
Estrogen receptor
  AC50: > 30 µM
Motilin receptor
  AC50: > 30 µM

## O=C1c2ccccc2C(=O)C1c1ccccc1 [PHENINDIONE]
Adenosine receptor A3
  AC50: > 10 µM
[1]
  AC50: > 10 µM
Cannabinoid receptor 1
  AC50: > 10 µM
Estrogen receptor
  AC50: > 10 µM
[2]
  AC50: > 30 µM
Motilin receptor
  AC50: > 10 µM

## COC(=O)[C@H]1[C@H]2C[C@@H]3c4[nH]c5cc(OC)ccc5c4CCN3C[C@H]2C[C@@H](OC(=O)c2cc(OC)c(OC)c(OC)c2)[C@@H]1OC [RESERPINE]
Adenosine receptor A3
  AC50: 26.5 µM
[3]
  AC50: > 30 µM
[1]
  AC50: > 10 µM
Cannabinoid receptor 1
  AC50: > 10 µM
D(1A) dopamine receptor
  AC50: > 30 µM
[2]
  AC50: > 10 µM
Motilin receptor
  AC50: > 10 µM
Progesterone receptor
  AC50: > 30 µM

## C[C@]12C=CC(=O)C=C1CC[C@@H]1[C@@H]2CC[C@]2(C)OC(=O)CC[C@@H]12 [TESTOLACTONE]
Adenosine receptor A3
  AC50: > 10 µM
[1]
  AC50: > 10 µM
Cannabinoid receptor 1
  AC50: > 10 µM
Estrogen receptor
  AC50: > 10 µM
[2]
  AC50: > 10 µM
Motilin receptor
  AC50: > 10 µM
